Laboratory results taken from patent US11297861B2, “Sweet protein from truffle” (MycoTechnology, Inc., priority 2020, dated 2022).

Test system: sweet taste
Assay: CATA time intensity of the sweet sensation, trained panel
Assay type: in vivo, human
Conditions: 10% sucrose in water
Method: Evaluation of thaumatin, sucrose, and SEQ ID NO:21 was carried out using a CATA (click all that apply) time intensity of the sweet sensation of named analytes in water at 0.045 mg/ml for proteins and 10% sucrose. Methodology: Time Intensity Technique; Data collection software: EyeQuestion, responses recorded every 2.57 seconds; Scaling Method: a 15-point sweet scale, e.g. score 5=5% sucrose, score 10=10% sucrose; Evaluation Protocol: small volume sip, tilt and spit test. There were 3-6 panelists and 2 replicates. All samples were blinded and presented with randomized 3-digit codes. Training Strategies: An intense training on sweet scale over 6 weeks on 15-point sweet scale to confidently assign sweet values. Due to unique sweet behavioral patterns, it is necessary to train time intensity principles over 3 weeks. Samples were tasted with a stopwatch to note times and help reach a consensus. # of Panelists: 3-6, # of replications: 2. All samples were blinded and presented with randomized 3-digit codes. Statistical analysis: due to the small # of panelists, a statistical analysis cannot be performed.

## OC[C@H]1O[C@@](CO)(O[C@H]2O[C@H](CO)[C@@H](O)[C@H](O)[C@H]2O)[C@@H](O)[C@@H]1O [SUC, sucrose]
  time to threshold sweetness (Intensity <1): 162 s
